Measured values reported in US20130184272A1, “DIABETES THERAPEUTIC AGENT” (TAKEDA PHARMACEUTICAL COMPANY LIMITED, priority 2010, published 2013).

Tests used:
C2C12 cells = assay: ATP content in muscle cell; assay type: cell-based, Mouse; conditions: for ATP content: two days, control group 100
Experimental: • (1) In the same manner as in Example 1, C2C12 cells were cultured in a growth medium to not less than 90% confluence. • (2) The medium was exchanged with a differentiation medium, and the cells were cultured until observation of myotube formation under a microscope. • (3) The compounds of Reference Example 1 and Reference Example 7 were added, and the cells were cultured for two days. • (4) ATP content was measured using Cell Titer-Glo™ Luminescence cell viable assay (Promega) and succinic acid dehydrogenase activity of mitochondria was measured using Cell Counting Kit-8 (Dojin). The data of Table 17 show mean±standard deviation at n=3-4 (n is the number of samples).

[1] = test system: Male C57BL/6J mice on a high-fat diet; assay: Antiobesity, dyslipidemia and diabetes improving effect in mouse fed with high-fat diet; assay type: in vivo; design: plasma leptin (mg/dL): unit not given here; conditions: for epididymal fat mass / gastrocnemius muscle weight (g/100 g body weight) / hepatocyte weight / mesenteric fat mass: Day 38
Experimental: Male C57BL/6J mice (CLEA Japan, Inc.) were bred from 5-week-old on a high-fat diet (D12451, research diet) while allowing free ingestion of both feed and water to prepare obesity mice. The mice were bred for acclimation for 2 weeks from 21-week-old. The body weight and plasma markers were measured when 23-week-old, the mice were divided into 6 groups (6 per group) such that the values thereof were uniform, and Reference Example 1 (0.01-0.1 mg/kg) or Reference Example 7 (1-3 mg/kg) was orally administered for 5 weeks. After 14 and 28 days, plasma levels of total cholesterol, neutral lipid, glucose, insulin, leptin, adiponectin and glycated hemoglobin were measured. On the last day, the mice were autopsied, and weights of mesenteric fat, epididymal fat, liver and gastrocnemius muscle were measured. The data of Table 18 show mean±standard deviation at n=5-6 (n is the number of samples).

[2] = test system: Mouse-derived myoblast line C2C12 cell; assay: Cell differentiation promoting activity in myoblast (creatine kinase activity); assay type: cell-based; conditions: Mus musculus, C2C12, 48 h; compound at 0.01 μM (**); 2 days; without compound = 100%; read-out: creatine kinase activating action (%)
Outline: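 C2C12 myoblasts at ≥90% subconfluence were switched to high-glucose DMEM with 2% horse serum plus compound for 2 days. Creatine kinase in NP-40/freeze-thaw lysates indexed differentiation, given as % of the DMSO control. Compounds were tested mostly at 1 μM, some at 10 μM or 0.01 μM.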

Cc1ncccc1Oc1sc(C(N)=O)c2c1-c1c(cnn1C)CC2 [Ref. Ex. 1, 1-methyl-8-[(2-methylpyridin-3-yl)oxy]-4,5-dihydro-1H-thieno[3,4-g]indazole-6-carboxamide]
ATP content of muscle cells (in words) (C2C12 cells): did not decrease | ATP content (C2C12 cells; compound 0.01 nM): 108 ± 1 | ATP content (C2C12 cells; compound 0.1 nM): 107 ± 0 | ATP content (C2C12 cells; compound 1 nM): 112 ± 1 | average amount of ingestion ([1]; 0.01 mg/kg oral): 3.7 ± 0.2 g/day | body weight (g) change ([1]; 0.01 mg/kg oral): 3.0 ± 1.2 g | body weight ([1]; 0.01 mg/kg oral, Day 0): 40.9 ± 2.5 g | glycated hemoglobin (%) ([1]; 0.01 mg/kg oral, Day 0): 4.5 ± 0.2% | plasma adiponectin (μg/dL)) ([1]; 0.01 mg/kg oral, Day 0): 15.9 ± 3.4 µg/dL | plasma glucose ([1]; 0.01 mg/kg oral, Day 0): 178.1 ± 26.5 mg/dL | plasma insulin ([1]; 0.01 mg/kg oral, Day 0): 4.2 ± 2.0 ng/mL | plasma leptin (mg/dL) ([1]; 0.01 mg/kg oral, Day 0): 54.2 ± 21.0 | plasma neutral fats ([1]; 0.01 mg/kg oral, Day 0): 73.4 ± 15.1 mg/dL | plasma total cholesterol ([1]; 0.01 mg/kg oral, Day 0): 222.1 ± 45.4 mg/dL | glycated hemoglobin (%) ([1]; 0.01 mg/kg oral, Day 14): 4.0 ± 0.3 % | plasma adiponectin (μg/dL)) ([1]; 0.01 mg/kg oral, Day 14): 15.5 ± 2.5 µg/dL | plasma glucose ([1]; 0.01 mg/kg oral, Day 14): 156.0 ± 23.4 mg/dL | plasma insulin ([1]; 0.01 mg/kg oral, Day 14): 6.2 ± 5.8 ng/mL | plasma leptin (mg/dL) ([1]; 0.01 mg/kg oral, Day 14): 71.2 ± 22.0 | plasma neutral fats ([1]; 0.01 mg/kg oral, Day 14): 59.4 ± 18.5 mg/dL | plasma total cholesterol ([1]; 0.01 mg/kg oral, Day 14): 182.6 ± 19.5 mg/dL | glycated hemoglobin (%) ([1]; 0.01 mg/kg oral, Day 28): 3.8 ± 0.4% | plasma adiponectin (μg/dL)) ([1]; 0.01 mg/kg oral, Day 28): 14.7 ± 2.9 µg/dL | plasma glucose ([1]; 0.01 mg/kg oral, Day 28): 162.9 ± 24.4 mg/dL | plasma insulin ([1]; 0.01 mg/kg oral, Day 28): 5.4 ± 3.9 ng/mL | plasma leptin (mg/dL) ([1]; 0.01 mg/kg oral, Day 28): 81.8 ± 23.9 | plasma neutral fats ([1]; 0.01 mg/kg oral, Day 28): 45.5 ± 14.1 mg/dL | plasma total cholesterol ([1]; 0.01 mg/kg oral, Day 28): 187.2 ± 15.9 mg/dL | body weight ([1]; 0.01 mg/kg oral, Day 37): 44.9 ± 2.6 g | epididymal fat mass ([1]; 0.01 mg/kg oral): 0.91 ± 0.26 g | gastrocnemius muscle weight (g/100 g body weight) ([1]; 0.01 mg/kg oral): 0.373 ± 0.030 g/100 g body weight | hepatocyte weight ([1]; 0.01 mg/kg oral): 1.81 ± 0.23 g | mesenteric fat mass ([1]; 0.01 mg/kg oral): 0.87 ± 0.17 g | average amount of ingestion ([1]; 0.03 mg/kg oral): 3.2 ± 0.2 g/day | body weight (g) change ([1]; 0.03 mg/kg oral): -0.2 ± 0.9 g | body weight ([1]; 0.03 mg/kg oral, Day 0): 40.9 ± 2.2 g | glycated hemoglobin (%) ([1]; 0.03 mg/kg oral, Day 0): 4.5 ± 0.1% | plasma adiponectin (μg/dL)) ([1]; 0.03 mg/kg oral, Day 0): 18.0 ± 4.0 µg/dL | plasma glucose ([1]; 0.03 mg/kg oral, Day 0): 178.5 ± 27.8 mg/dL | plasma insulin ([1]; 0.03 mg/kg oral, Day 0): 6.0 ± 3.7 ng/mL | plasma leptin (mg/dL) ([1]; 0.03 mg/kg oral, Day 0): 70.3 ± 19.6 | plasma neutral fats ([1]; 0.03 mg/kg oral, Day 0): 72.3 ± 34.0 mg/dL | plasma total cholesterol ([1]; 0.03 mg/kg oral, Day 0): 238.2 ± 19.0 mg/dL | glycated hemoglobin (%) ([1]; 0.03 mg/kg oral, Day 14): 4.1 ± 0.1 % | plasma adiponectin (μg/dL)) ([1]; 0.03 mg/kg oral, Day 14): 19.5 ± 3.1 µg/dL | plasma glucose ([1]; 0.03 mg/kg oral, Day 14): 154.9 ± 12.1 mg/dL | plasma insulin ([1]; 0.03 mg/kg oral, Day 14): 3.5 ± 2.1 ng/mL | plasma leptin (mg/dL) ([1]; 0.03 mg/kg oral, Day 14): 54.7 ± 19.0 | plasma neutral fats ([1]; 0.03 mg/kg oral, Day 14): 50.9 ± 14.7 mg/dL | plasma total cholesterol ([1]; 0.03 mg/kg oral, Day 14): 165.6 ± 11.3 mg/dL | glycated hemoglobin (%) ([1]; 0.03 mg/kg oral, Day 28): 4.1 ± 0.1% | plasma adiponectin (μg/dL)) ([1]; 0.03 mg/kg oral, Day 28): 16.4 ± 3.8 µg/dL | plasma glucose ([1]; 0.03 mg/kg oral, Day 28): 167.0 ± 20.4 mg/dL | plasma insulin ([1]; 0.03 mg/kg oral, Day 28): 2.7 ± 0.8 ng/mL | plasma leptin (mg/dL) ([1]; 0.03 mg/kg oral, Day 28): 62.4 ± 18.1 | plasma neutral fats ([1]; 0.03 mg/kg oral, Day 28): 54.4 ± 19.8 mg/dL | plasma total cholesterol ([1]; 0.03 mg/kg oral, Day 28): 170.3 ± 13.5 mg/dL | body weight ([1]; 0.03 mg/kg oral, Day 37): 41.0 ± 2.3 g | epididymal fat mass ([1]; 0.03 mg/kg oral): 0.72 ± 0.05 g | gastrocnemius muscle weight (g/100 g body weight) ([1]; 0.03 mg/kg oral): 0.407 ± 0.017 g/100 g body weight | hepatocyte weight ([1]; 0.03 mg/kg oral): 1.56 ± 0.11 g | mesenteric fat mass ([1]; 0.03 mg/kg oral): 0.57 ± 0.11 g | average amount of ingestion ([1]; 0.1 mg/kg oral): 2.7 ± 0.3 g/day | body weight (g) change ([1]; 0.1 mg/kg oral): -4.1 ± 0.7 g | body weight ([1]; 0.1 mg/kg oral, Day 0): 38.8 ± 3.5 g | glycated hemoglobin (%) ([1]; 0.1 mg/kg oral, Day 0): 4.5 ± 0.2% | plasma adiponectin (μg/dL)) ([1]; 0.1 mg/kg oral, Day 0): 16.8 ± 5.7 µg/dL | plasma glucose ([1]; 0.1 mg/kg oral, Day 0): 183.9 ± 35.2 mg/dL | plasma insulin ([1]; 0.1 mg/kg oral, Day 0): 4.3 ± 1.8 ng/mL | plasma leptin (mg/dL) ([1]; 0.1 mg/kg oral, Day 0): 55.7 ± 15.4 | plasma neutral fats ([1]; 0.1 mg/kg oral, Day 0): 63.2 ± 9.1 mg/dL | plasma total cholesterol ([1]; 0.1 mg/kg oral, Day 0): 218.2 ± 19.0 mg/dL | glycated hemoglobin (%) ([1]; 0.1 mg/kg oral, Day 14): 4.0 ± 0.2 % | plasma adiponectin (μg/dL)) ([1]; 0.1 mg/kg oral, Day 14): 22.8 ± 3.8 µg/dL | plasma glucose ([1]; 0.1 mg/kg oral, Day 14): 159.6 ± 26.7 mg/dL | plasma insulin ([1]; 0.1 mg/kg oral, Day 14): 1.4 ± 0.6 ng/mL | plasma leptin (mg/dL) ([1]; 0.1 mg/kg oral, Day 14): 27.4 ± 19.1 | plasma neutral fats ([1]; 0.1 mg/kg oral, Day 14): 25.2 ± 7.6 mg/dL | plasma total cholesterol ([1]; 0.1 mg/kg oral, Day 14): 129.1 ± 15.4 mg/dL | glycated hemoglobin (%) ([1]; 0.1 mg/kg oral, Day 28): 3.8 ± 0.2 % | plasma adiponectin (μg/dL)) ([1]; 0.1 mg/kg oral, Day 28): 19.2 ± 2.9 µg/dL | plasma glucose ([1]; 0.1 mg/kg oral, Day 28): 138.6 ± 17.3 mg/dL | plasma insulin ([1]; 0.1 mg/kg oral, Day 28): 1.4 ± 0.6 ng/mL | plasma leptin (mg/dL) ([1]; 0.1 mg/kg oral, Day 28): 29.2 ± 20.0 | plasma neutral fats ([1]; 0.1 mg/kg oral, Day 28): 34.7 ± 12.5 mg/dL | plasma total cholesterol ([1]; 0.1 mg/kg oral, Day 28): 135.1 ± 15.4 mg/dL | body weight ([1]; 0.1 mg/kg oral, Day 37): 35.6 ± 3.9 g | epididymal fat mass ([1]; 0.1 mg/kg oral): 0.47 ± 0.10 g | gastrocnemius muscle weight (g/100 g body weight) ([1]; 0.1 mg/kg oral): 0.468 ± 0.033 g/100 g body weight | hepatocyte weight ([1]; 0.1 mg/kg oral): 1.37 ± 0.24 g | mesenteric fat mass ([1]; 0.1 mg/kg oral): 0.30 ± 0.08 g | body weight (in words) ([1]; obese mouse model fed with a high-fat diet): clear body weight decreasing action | activity at 0.01 µM [2]: 175%
